Results on five compounds are retold here after US9393229B2, “Method for treating abnormal polyglutamine-mediated disease” (NATIONAL TAIWAN NORMAL UNIVERSITY, priority 2013, dated 2016).

For orientation: IC50 means the concentration needed to halve the response being measured.

A short description of data set [1]: in vitro. Particulars: human, SH-SY5Y cells.
Description: (§3) Human embryonic kidney HEK-293 cells (ATCC No. CRL-1573) were cultivated in Dulbecco's modified Eagle's medium (DMEM) containing 10% fetal bovine serum (FBS). Human neuroblastoma SH-SY5Y cells (ATCC No. CRL-2266) were maintained in DMEM F12 supplemented with 10% FBS. Cells were cultivated at 37° C. incubator containing 5% CO2 and cell proliferation was measured based upon the reduction of the tetrazolium salt, 3,[4,5-dimethylthiazol-2-yl]-2,5-diphenyl-tetrazolium bromide (MTT). […] After one day, 20 μL MTT (5 mg/mL in PBS, Sigma) was added to cells and incubated for 2 hours. The absorbance of the purple formazan dye was measured at 570 nm by a Bio-Tek μtQuant Universal Microplate Spectrophotometer.
A short description of data set [2]: in vitro. The conditions noted are these: human, HEK-293 cells.
Description: as §3
The test system of another data set is HSPA8 promoter. Kind of data set: Triple fluorescent reporter cells, HSPA8 promoter activity. Type of data set: cell-based, human. The conditions noted are these: 100 nM-100 μM, 24 hours. The text has this:
(§1) Referring to three references (Zhang Y, Koushik S, Dai R, Mivechi N F, Journal of Biological Chemistry, vol. 273, no. 49, pp. 32514-32521, 1998; He M, Guo H, Yang X, Zhou L, Zhang X, Cheng L, Zeng H, Hu F B, Tanguay R M, Wu T, PLoS One, vol. 5, no. 3, e9684, 2010; and Wu Y R, Wang C K, Chen C M, Hsu Y, Lin S J, Lin Y Y, Fung H C, Chang K H, Lee-Chen G J, Human Genetics, vol. 114, no. 3, pp. 236-241, 2004), a triple fluorescent reporter plasmid was constructed in pAmCyan1-N1 with mCherry, ZsYellow1 and AmCyan1 fluorescent reporters driven by heat shock transcription factor1 (HSF1, −360˜+2, with the translation initiation A as +1), heat shock cognate protein (HSPA8, −1140˜+38, driving constitutively expressed HSP70) and heat-inducible HSP70 chaperone (HSPA1A, −273˜+215, driving heat-inducible HSP70) promoters, respectively. The fragment containing the HSF1, HSPA8 and HSPA1A driven reporters was removed with AseI and NotI restriction enzymes and used to replace an AseI-NotI fragment in pcDNA5/FRT/TO plasmid (Invitrogen). The resulting triple fluorescent reporter plasmid was used to generate triple fluorescent reporter cells by targeted insertion into Flp-In™-293 cells, according to the supplier's instructions (Invitrogen). The cells were selected by medium containing 5 μg/mL blasticidin S and 100 μg/mL hygromycin.
(§2) The three fluorescence colors were analyzed simultaneously using high-content analysis (HCA) system (ImageXpressMICRO, Molecular Devices), with excitation/emission wavelengths at […], 531/540 (ZsYellow1) and […].

The subject of data set [3] is SCA17 mouse cerebellar slice culture. As to the kind of experiment: SCA17 mouse cerebellar slice culture, Purkinje cell aggregation. Type of data set: cell-based. The method, then: Cerebellum was separated from p7 SCA17 mice and transferred to ice-cold medium containing 50% basal medium eagle (Invitrogen), 25% Hank's buffered salt solution (Invitrogen), 25% horse serum (Invitrogen), 0.5% D-glucose (Sigma), 1 mM GlutaMAX I (Invitrogen), 100 U/mL penicillin (Invitrogen) and 100 μg/mL streptomycin (Invitrogen). The cerebellum was separated from the other brain regions in ice-cold medium, and the hemisphere was then cut into 350 μm parasagittal sections with a vibratome (VT1200S, Leica). To improve the survival rate of cerebellar slices, we continuously bubbled the medium with 95% O2 and 5% CO2 during the sectioning. The slices were then cultured on 0.4 μm pore size culture plate inserts (Millipore) in six-well plates. All treatments were applied to the slices at day 2. After culture for 7 days, cells were immunostained with primary antibody [IP3R-1 (for Purkinje cells), 1:1000, Santa Cruz; 1TBP18 (for aggregation), 1:30000, QED Bioscience], fluorescence-conjugated secondary antibody (1:500, Invitrogen) and DAPI (1:10000, Sigma). The staining results were observed by confocal microscope (DMRE, TCS SP2, Leica).
To further confirm neuroprotective potential of the indole compounds, we applied indole and NC001-8 to the SCA17 mouse cerebellar primary and slice cultures, respectively. […]

The test system of another data set is HSF1 promoter. Kind of data set: Triple fluorescent reporter cells, HSF1 promoter activity. Type of data set: cell-based, human. Particulars: 100 nM-100 μM, 24 hours.
Description: as §1, §2

In a further data set the test system is HSPA1A promoter. Kind of data set: Triple fluorescent reporter cells, HSPA1A promoter activity. Type of data set: cell-based, human. Particulars: 100 nM-100 μM, 24 hours.
Description: as §1, §2

The test system of a further data set is 293 ATXN3/Q75-GFP cells. As to the kind of experiment: ATXN3/Q75 aggregation assay (high content analysis). The format is cell-based, human. The conditions noted are these: at 100 nM; 6 days doxycycline and oxaliplatin. The procedure:
Then, doxycycline (10 μg/mL, BD) was added to the medium in each well to induce ATXN3/Q75-GFP expression for 6 days. […] Then, cells were stained with Hoechst 33342 (0.1 μg/mL, Sigma) and aggregation percentage was assessed by high content analysis (HCA) system (ImageXpressMICRO, Molecular Devices), with excitation/emission wavelengths at 482/536 (EGFP).

The test system of another data set is LC3. Kind of data set: LC3-II/LC3-I ratio (autophagy) in 293 ATXN3/Q75 cells, Western blot. Type of data set: cell-based, human. The conditions noted are these: 293 ATXN3/Q75 cells +Dox 6 days, 200 nM; +Dox alone 59%. In general terms: Immunoblotting shows a protein as a band on a membrane.
In the next data set the test system is SH-SY5Y cells. Kind of data set: MTT cytotoxicity against SH-SY5Y cells. Particulars: read-out: IC50 (cytotoxicity) against SH-SY5Y cells; MTT assay, 24 hours. For orientation: Formazan colour is commonly taken as a measure of viable cells.

Description for LC3: Total proteins were prepared using lysis buffer containing 50 mM Tris-HCl, 150 mM NaCl, 1 mM EDTA, 1 mM EGTA, 0.1% SDS and 0.5% sodium deoxycholate, 1% Triton X-100, and protease inhibitor cocktail (Calbiochem). Proteins (25 μg) were separated on 10% SDS-polyacrylamide gel electrophoresis and blotted on to nitrocellulose membranes by reverse electrophoresis. After blocking, the membrane was probed with antibody to HSF1 (1:1000 dilution, Abnova), HSPA8 (1:500 dilution, Santa Cruz), HSPA1A (1:500 dilution, Santa Cruz), GFP (1:500 dilution, Santa Cruz), LC3 (1:3000 dilution, MBL International), TBP (N-12) (1:500 dilution, Santa Cruz), β-actin (1:5000 dilution, Millipore) or GAPDH (1:1000 dilution, MDBio) at 4° C. overnight. Then the immune complexes were detected by horseradish peroxidase-conjugated goat anti-mouse (Jackson ImmunoResearch) or goat anti-rabbit (Rochland) IgG antibody (1:5000 dilution, GeneTex) and chemiluminescent substrate (Millipore).
Description for SH-SY5Y cells: as §3

As for `O=C1CCc2[nH]c3ccccc3c21` [NC001-8, 3,4-dihydrocyclopenta[b]indol-1(2H)-one], the results for the half-inhibitory concentration (IC50) at 24 h in the data set “in vitro [1]” and in the data set “in vitro [2]” were 390 µM and greater than 1000 µM, respectively. In addition, in the data set with HSPA8 promoter, the HSPA8 promoter activity result was “same trend of enhancement”. Further, the “reduction of Purkinje cell aggregation” value in data set [3] (10 μM) came to 16%. Besides, in the data set on HSF1 promoter, the HSF1 promoter activity entry is reported as “same trend of enhancement”. Besides, in the data set with HSPA1A promoter, the HSPA1A promoter activity entry is recorded as “same trend of enhancement”.
On to `O=C(CCCCCCC(=O)Nc1ccccc1)NO` [SAHA, suberoylanilide hydroxamic acid], for which, in the data set on 293 ATXN3/Q75-GFP cells, the “ATXN3/Q75 aggregation as compared to untreated cells (100%)” value is listed as 85%.
Regarding `c1ccc2[nH]ccc2c1` [indole], the 50% inhibitory concentration (IC50) at 24 h is 680 µM in “in vitro [1]” and greater than 1000 µM in “in vitro [2]”. Moreover, the HSPA8 promoter activity result with HSPA8 promoter is reported as “same trend of enhancement”. Further, the “reduction of Purkinje cell aggregation” value in [3] (10 nM) is recorded as 28%. The HSF1 promoter activity result in the data set on HSF1 promoter is listed as “same trend of enhancement”. The HSPA1A promoter activity result in the data set with HSPA1A promoter is given as “same trend of enhancement”.
As for `CO[C@H]1C[C@@H]2CC[C@@H](C)[C@@](O)(O2)C(=O)C(=O)N2CCCC[C@H]2C(=O)O[C@H]([C@H](C)C[C@@H]2CC[C@@H](O)[C@H](OC)C2)CC(=O)[C@H](C)/C=C(\C)[C@@H](O)[C@@H](OC)C(=O)[C@H](C)C[C@H](C)/C=C/C=C/C=C/1C` [rapamycin], in the data set with LC3, the LC3-II/LC3-I ratio was determined as 98%.
In the case of “geranylgeranylacetone [GGA, reference compound]”, the half-maximal inhibitory concentration (IC50) with SH-SY5Y cells came to 1000 µM. Moreover, the HSPA8 promoter activity result with HSPA8 promoter is listed as “enhanced”. For the same compound, the “ATXN3/Q75 aggregation as compared to untreated cells (100%)” value with 293 ATXN3/Q75-GFP cells worked out at 85%. Further, the HSF1 promoter activity result in the data set with HSF1 promoter is on record as “enhanced”. For the same compound, the HSPA1A promoter activity entry with HSPA1A promoter is recorded as “enhanced”.
